Entries after “also recorded” stand apart in the source; their conditions may differ.

The test system of one assay is HBV WT. As to the kind of experiment: HepG2.2.15 cell-based HBV assay, wild type. As to conditions: Hepatitis B virus. The method, then:
Selected compounds were evaluated in in vitro cell-based HepG2.2.15 HBV assay.
Antiviral analysis. For the antiviral analyses, confluent cultures of 2.2.1.5 cells were maintained on 96-well flat-bottomed tissue culture plates in RPMI1640 medium with 2% fetal bovine serum. Cultures (6 per each test concentration on two replicate plates) were treated with 9 consecutive daily doses of the test compounds. Medium was changed daily with fresh test compounds. HBV nucleic acid and protein levels were measured 24 hours after the last treatment. Extracellular (virion) HBV DNA levels were assessed by quantitative blot hybridization. Intracellular HBV DNA levels were measured by quantitative Southern blot hybridization.
The uptake of neutral red dye was used to determine the relative level of toxicity 24 hours following the last treatment. The absorbance of internalized dye at […] (A510) was used for the semi-quantitative analysis. Values are presented as a percentage of the average A510 values (±standard deviations) in 9 separate cultures of untreated cells maintained on the 96-well plates seeded at the same time with the identical pool of stock cells used for the antiviral analyses and maintained in an identical manner. A total of 3 cultures were treated with each concentration of the test compound.

The next assay deals with HCV. As to the kind of experiment: Combination studies against HCV in replicon assays. The class given is cell-based. As to conditions: Hepatitis C virus, read-out: EC50 (uM), single drug.
In assay [1] the test system is HCV replicon H/FL-Neo (genotype 1a (H77), full length construct). Description: Secondary anti-HCV assay, replicon H/FL-Neo. The class given is cell-based. As to conditions: Hepatitis C virus. From the text:
This assay assesses activity against additional genotypes using the format described for the primary assay. Activity against the genotype 1b HCV was included for comparison. A replicon cell line containing H/FL-Neo (genotype 1a (H77), full length construct) (Blight, et al., 2003, J. Virol. 77:3181) was used.

Another assay relates to EEEH protein. As to the kind of experiment: EEEH expression in woodchucks after sublingual administration. The class given is in vivo. The settings on record: following absorption by the sublingual route. The method, then: Compound 5 was administered by sublingual route to woodchucks, at a dose of […] in Transcutol, and blood was drawn periodically for analysis. Test results are provided in Tables 4 and 5 and FIG. 3 and FIG. 4.

For another assay, the system named is hepatitis B virus (HBV). As to the kind of experiment: Effect of i.p. administration on hepatitis B virus in transgenic mice. Format: in vivo. The method, then:
Compound 5 was evaluated in transgenic mice expressing hepatitis B virus (HBV). […] Its activity was also similar to the adefovir dipivoxil (ADV) anti-HBV activity; however, the two compounds seemed to suppress different HBV DNA species. […] In contrast, Compound 5 appeared to indiscriminately remose all HBV DNA species, including the bands typically left by ADV, which may reflect a different mechanism of action other than classical chain termination. Serum HBe, liver HBs, and HBc were not affected by Compound 5 treatment, which is consistent in transgenic mice with compounds that block viral synthesis “downstream” from mRNA synthesis, such as blockage of polymerase activities. A minimal effective dosage was determined to be between 1.6-0.5 mg/kg/day, which was similar to ADV minimal effective dosage of 1.0 mg/kg/day (Table 8).

A further assay addresses T1, RIG-I (Homo sapiens, UniProt O95786).
T1 sequence (O95786 1-925): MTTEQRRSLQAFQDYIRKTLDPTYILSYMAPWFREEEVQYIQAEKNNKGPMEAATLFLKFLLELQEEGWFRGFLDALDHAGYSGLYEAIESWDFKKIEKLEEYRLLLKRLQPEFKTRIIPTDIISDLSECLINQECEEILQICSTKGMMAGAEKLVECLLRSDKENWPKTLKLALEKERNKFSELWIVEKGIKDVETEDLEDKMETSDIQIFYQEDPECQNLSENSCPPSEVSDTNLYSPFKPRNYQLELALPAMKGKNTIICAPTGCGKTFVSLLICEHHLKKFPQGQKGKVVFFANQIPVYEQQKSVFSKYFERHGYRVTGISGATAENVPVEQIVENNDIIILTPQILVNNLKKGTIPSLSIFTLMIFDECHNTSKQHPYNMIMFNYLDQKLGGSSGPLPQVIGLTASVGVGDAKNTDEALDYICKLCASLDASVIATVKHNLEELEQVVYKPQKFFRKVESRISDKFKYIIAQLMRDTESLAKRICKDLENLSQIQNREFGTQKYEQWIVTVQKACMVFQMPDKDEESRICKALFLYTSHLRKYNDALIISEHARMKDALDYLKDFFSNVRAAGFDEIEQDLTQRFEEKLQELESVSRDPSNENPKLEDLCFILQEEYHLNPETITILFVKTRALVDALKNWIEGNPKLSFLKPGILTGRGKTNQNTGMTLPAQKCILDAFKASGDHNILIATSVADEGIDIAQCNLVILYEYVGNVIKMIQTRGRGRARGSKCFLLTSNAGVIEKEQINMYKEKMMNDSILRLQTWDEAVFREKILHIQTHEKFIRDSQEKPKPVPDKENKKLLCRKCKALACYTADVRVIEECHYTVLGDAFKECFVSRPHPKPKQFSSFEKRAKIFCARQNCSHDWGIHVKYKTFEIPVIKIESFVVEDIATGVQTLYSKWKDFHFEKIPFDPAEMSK
As to the kind of experiment: RIG-I translocation on dsRNA, single-molecule PIFE assay. The class given is biochemical. As to the method:
An in vitro single-molecule fluorescence assay termed PIFE (protein induced fluorescence enhancement) was employed to monitor such movement (Myong, S. et al., Science, 323, 1070, 2009).
For quantitation of RIG-I translocation, Single molecule PIFE yields were estimated. Single molecule PIFE yields are obtained from several hundred molecules simultaneously, allowing statistically reliable data collection.
The translocation as above was carried out using different concentrations of nucleotide compound.
A standard dsRNA (25 bp) was used as a main substrate for RIG-I translocation assay. […] The ratio between rapid (stimulated) translocation and slow translocation would be accounted for in the estimation of compound strength. In order to quantify the affinity of the compound to RIG-I or to RNA substrate, various concentrations of the compound (1-100 μM range) were used in the assay. This enabled the calculation of the association/dissociation constant for each compound, which was a useful measure to apply in cell-based evaluation of compound potency.
The same translocation assay was used on dsRNA, which contains […] moiety with and without the compound.

A further assay has as its system PBMCs. The class given is cell-based.
The next assay has as its system macrophages. Format: cell-based.
Where [2] appears, read: 100 mg/kg/d i.p. once daily 14 days, group listed with C:E:S vehicle.
The mark [3] stands for this setting: 100 mg/kg/d i.p. once daily 14 days, group listed with saline placebo.

For the compound `CO[C@H]1C(OP(=O)(OC[C@H]2O[C@@H](n3cnc4c(N)ncnc43)CC2O)SCOC(=O)OC(C)C)[C@@H](CO)O[C@H]1n1ccc(=O)[nH]c1=O` (some centres unmarked) [Compound 6k], the figures for the 50% effective concentration (EC50) (with HBV WT; in the assay on HCV; in assay [1]) were 2500 nM, 1.5 to 2.3 µM and 1000 nM, respectively. Further, the results for the EC90 (with HBV WT; in assay [1]) were 8500 nM and approximately 6000 nM, respectively.

As to `CO[C@H]1C(OP(=O)(S)OC[C@H]2O[C@@H](n3cnc4c(N)ncnc43)CC2O)[C@@H](CO)O[C@H]1n1ccc(=O)[nH]c1=O` (some centres unmarked) [Compound 5, 3-dApsU2′-OMe], the “kinetics of induction of the EEEH protein” value in the assay on EEEH protein is on record as “very rapid”. In the assay on hepatitis B virus (HBV) (setting [2]), the “Liver HBV DNA (mean pg viral/μg cellular DNA ± stdev)” value is recorded as 1.7 ± 1.5 (9) pg viral/μg cellular DNA, the “Liver HBV RNA (mean relative units ± stdev)” value was found to be 1.7 ± 0.3 relative units, the “Liver HBeAg (mean stained cells/100 × field ± stdev)” value came out at 24 ± 15 stained cells/100 × field and the “Serum HBV DNA (mean log10 genome equivalents/mL serum ± stdev)” value is reported as 5.4 ± 0.6 (7) log10 genome equivalents/mL serum. Moreover, in the assay on hepatitis B virus (HBV) (setting [2]), the “Serum HBeAg (mean ng/mL ± stdev)” value was 1241 ± 279 ng/mL and the “Serum HBsAg (mean ng/mL ± stdev)” value was found to be 28 ± 15 ng/mL. In the assay with hepatitis B virus (HBV) (setting [3]), the “Liver HBV DNA (mean pg viral/μg cellular DNA ± stdev)” value was 0.3 ± 0.4 (8) pg viral/μg cellular DNA and the “Serum HBV DNA (mean log10 genome equivalents/mL serum ± stdev)” value is recorded as 5.0 ± 0.3 (8) log10 genome equivalents/mL serum. Besides, the “effect on liver HBV DNA” value with hepatitis B virus (HBV) (i.p. once daily 14 days, 100 mg/kg/day, saline or cremaphor:ethanol:saline vehicles) is listed as “significantly reduced liver HBV DNA”. For the same compound, the “effect on serum HBe, liver HBs, and HBc” value with hepatitis B virus (HBV) (i.p. treatment) is listed as “not affected”. Also, the “RIG-I translocation on dsRNA (activity in words)” value on RIG-I (PIFE assay) is “rapid translocation on dsRNA in a dose-dependent manner; also recorded: strong activators of RIG-I translocation”. Moreover, the “proportion of fast RIG-I translocation” value on RIG-I (concentration increased from 5 μM up to 170 μM) is listed as “corresponding increase in the proportion of fast translocation”. Further, the “induction of IFN” value in the assay on PBMCs is given as “induction of IFN beta”. For the same compound, the “induction of IL-2” value with macrophages is “showed induction of IL-2”.
